Reference: patent US11096985B2, “Antimicrobial peptides, their variants and uses” (priority 2015, dated 2021)
Where a SMILES comes first, the peptide text is derived from it. [ ]: non-standard residue; d: D form.

Assays:
[1] = test system: clinical strains of Enterobacter cloacae; assay: MIC, clinical strains of Enterobacter cloacae; assay type: cell-based; parameters: unit: μg/ml; conditions: microdilution, Muller Hinton broth-cation adjusted, 0.02% BSA, 0.2% acetic acid
Procedure, shortened: (§1)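 Clinical isolates at 5.0×10^5 cfu/ml in Mueller-Hinton broth (Potato dextrose broth for yeasts) were exposed to Chain peptides at 0.125–128 μg/ml by broth microdilution, 37 °C for 20–24 h. MIC was the lowest concentration with no visible growth.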

[2] = test system: clinical strains of Klebsiella pneumoniae; assay: MIC, clinical strains of K. pneumoniae; assay type: cell-based; parameters: unit: μg/ml; conditions: microdilution, Muller Hinton broth-cation adjusted, 0.02% BSA, 0.2% acetic acid
Procedure, shortened: as §1

[3] = test system: clinical strains of Proteus mirabilis; assay: MIC, clinical strains of Proteus mirabilis; assay type: cell-based; parameters: unit: µg/mL; conditions: microdilution, Muller Hinton broth-cation adjusted, 0.02% BSA, 0.2% acetic acid
Procedure, shortened: as §1

[4] = test system: clinical strains of C. quillermondiae; assay: MIC, clinical yeast strains, C. quillermondiae; assay type: cell-based; conditions: C. quillermondiae clinical yeast strain 1
Procedure, shortened: as §1

[5] = test system: clinical strains of Escherichia coli; assay: MIC, clinical strains of E. coli; assay type: cell-based; parameters: unit: μg/ml; conditions: microdilution, Muller Hinton broth-cation adjusted, 0.02% BSA, 0.2% acetic acid
Procedure, shortened: as §1

[6] = test system: clinical strains of C. glabrata; assay: MIC, clinical yeast strains, C. glabrata; assay type: cell-based, Candida glabrata; parameters: unit: μg/ml
Procedure, shortened: as §1

[7] = test system: clinical strains of Candida albicans; assay: MIC, clinical yeast strains, Candida albicans; assay type: cell-based; parameters: unit: μg/ml
Procedure, shortened: as §1

[8] = test system: clinical strains of Pseudomonas aeruginosa; assay: MIC, clinical strains of P. aeruginosa; assay type: cell-based; parameters: unit: μg/ml; conditions: microdilution, Muller Hinton broth-cation adjusted, 0.02% BSA, 0.2% acetic acid
Procedure, shortened: as §1

[9] = test system: clinical strains of Acinetobacter baumannii; assay: MIC, clinical strains of Acinetobacter baumannii; assay type: cell-based; conditions: microdilution, Muller Hinton broth-cation adjusted, 0.02% BSA, 0.2% acetic acid
Experimental: Minimum inhibition concentrations (MICs) were determined against Escherichia coli (ATCC 25922), Staphylococcus aureus (ATCC 25923), Klebsiella pneumoniae (ATCC 10031) and Pseudomonas aeruginosa (ATCC 27853). Also clinical strains of E. coli, K. pneumoniae, E. cloacae, P. aeruginosa, Serratia marcescens, Proteus mirabilis, S. pneumoniae, Acinetobacter baumannii, A. johnsonii and S. aureus were used for MICs assays. Additionally, clinical strains of yeast including Candida albicans, C. glabrata, C. parapsilosis and C. quillermondiae were used. The susceptibility of these microorganisms to Chain peptides were determined using micro broth dilution assay. Colonies of the respective microorganism from Muller Hinton (MH) agar plates incubated overnight were suspended in MH broth media and final concentration of microorganism was adjusted to 5.0×10^5 cfu/ml. An aliquot of 10 μl of each Chain peptide, or gentamicin, tetracycline as reference antibiotics were added in differing concentrations along with 90 μl of bacterial suspension to 96 well polypropylene plates and incubated at 37° C. for 20 to 24 hours. Concentrations of Chain peptides and reference antibiotics ranged from 0.125 to 128 μg/ml and the MICs were recorded as the lowest concentration with no visual growth of bacteria. Similarly, antifungal MICs were tested in Potato dextrose broth.
Clinical strains of yeasts including Candida albicans, C. glabrata, C. parapsilosis and C. quillermondiae were also tested with the 12 Chain peptides. The minimum inhibitory concentration (MICs) varied between these peptides and are presented in Tables 4a, 4b, 4c and 5a, 5b, 5c. Peptides Chain 105, 201 and 308 are broad spectrum antimicrobials with MICs between 0.5-32 μg/ml against all the bacteria and yeasts tested, except Serratia marcescens and Proteus mirabilis, against which the MICs were between 64-128 μg/ml. Peptide Chain 306 has narrow spectrum activity against E.coli at 1 μg/ml and for the rest of the bacterial strains at >32 μg/ml (FIG. 10).

[10] = test system: clinical strains of Streptococcus pneumoniae; assay: MIC, clinical strains of Streptococcus pneumoniae; assay type: cell-based; parameters: unit: µg/mL; conditions: microdilution, Muller Hinton broth-cation adjusted, 0.02% BSA, 0.2% acetic acid
Procedure, shortened: as §1

[11] = test system: clinical strains of Staphylococcus aureus; assay: MIC, clinical strains of S. aureus; assay type: cell-based; parameters: unit: μg/ml; conditions: microdilution, Muller Hinton broth-cation adjusted, 0.02% BSA, 0.2% acetic acid
Procedure, shortened: as §1

[12] = test system: clinical strains of Serratia marcescens; assay: MIC, clinical strains of Serratia marcescens; assay type: cell-based; parameters: unit: µg/mL; conditions: microdilution, Muller Hinton broth-cation adjusted, 0.02% BSA, 0.2% acetic acid
Procedure, shortened: as §1

[13] = test system: clinical strains of C. parapsilosis; assay: MIC, clinical yeast strains, C. parapsilosis; assay type: cell-based, Candida parapsilosis; parameters: unit: μg/ml
Procedure, shortened: as §1

CC[C@@H](C)[C@@H](NC(=O)[C@@H](Cc1c[nH]c2ccccc12)NC(=O)[C@H](N)CCCCN)C(=O)N[C@@H](C(=O)N[C@H](Cc1c[nH]c2ccccc12)C(=O)N[C@H](CCCNC(=N)N)C(=O)N[C@H](Cc1c[nH]c2ccccc12)C(=O)N[C@H](CCCNC(=N)N)C(=O)N[C@H](Cc1ccccc1)C(=O)N[C@H](CCCCN)C(=O)N[C@H](CCCNC(=N)N)C(=O)O)C(C)C [Chain201D] (H-[dK][dW][dI][dV][dW][dR][dW][dR][dF][dK][dR]-OH)
Minimum inhibitory concentration ([1]; Enterobacter cloacae clinical strain 1): 1
Minimum inhibitory concentration ([1]; Enterobacter cloacae clinical strain 2): 2
Minimum inhibitory concentration ([1]; Enterobacter cloacae clinical strain 3): 2
Minimum inhibitory concentration ([1]; Enterobacter cloacae clinical strain 4): 2
Minimum inhibitory concentration ([1]; Enterobacter cloacae clinical strain 5): 1
Minimum inhibitory concentration ([2]; Klebsiella pneumoniae clinical strain 1): 2
Minimum inhibitory concentration ([2]; Klebsiella pneumoniae clinical strain 2): 2
Minimum inhibitory concentration ([2]; Klebsiella pneumoniae clinical strain 3): 4
Minimum inhibitory concentration ([2]; Klebsiella pneumoniae clinical strain 4): 4
Minimum inhibitory concentration ([2]; Klebsiella pneumoniae clinical strain 5): 2
Minimum inhibitory concentration ([3]; Proteus mirabilis clinical strain 1): >128
Minimum inhibitory concentration ([3]; Proteus mirabilis clinical strain 2): 32
Minimum inhibitory concentration ([3]; Proteus mirabilis clinical strain 3): 64
Minimum inhibitory concentration ([3]; Proteus mirabilis clinical strain 4): >128
Minimum inhibitory concentration ([3]; Proteus mirabilis clinical strain 5): >128
Minimum inhibitory concentration [4]: 8
Minimum inhibitory concentration ([5]; Escherichia coli clinical strain 1): 16
Minimum inhibitory concentration ([5]; Escherichia coli clinical strain 2): 1
Minimum inhibitory concentration ([5]; Escherichia coli clinical strain 3): 1
Minimum inhibitory concentration ([5]; Escherichia coli clinical strain 4): 1
Minimum inhibitory concentration ([5]; Escherichia coli clinical strain 5): 1
Minimum inhibitory concentration ([6]; C. glabrata clinical yeast strain 1): 8
Minimum inhibitory concentration ([6]; C. glabrata clinical yeast strain 2): 8
Minimum inhibitory concentration ([6]; C. glabrata clinical yeast strain 3): 8
Minimum inhibitory concentration ([6]; C. glabrata clinical yeast strain 4): 64
Minimum inhibitory concentration ([7]; Candida albicans clinical yeast strain 1): 16
Minimum inhibitory concentration ([7]; Candida albicans clinical yeast strain 2): 8
Minimum inhibitory concentration ([7]; Candida albicans clinical yeast strain 3): 8
Minimum inhibitory concentration ([7]; Candida albicans clinical yeast strain 4): 16
Minimum inhibitory concentration ([7]; Candida albicans clinical yeast strain 5): 8
Minimum inhibitory concentration ([8]; Pseudomonas aeruginosa clinical strain 1): 4
Minimum inhibitory concentration ([8]; Pseudomonas aeruginosa clinical strain 2): 4
Minimum inhibitory concentration ([8]; Pseudomonas aeruginosa clinical strain 3): 4
Minimum inhibitory concentration ([8]; Pseudomonas aeruginosa clinical strain 4): 2
Minimum inhibitory concentration ([8]; Pseudomonas aeruginosa clinical strain 5): 2
Minimum inhibitory concentration ([9]; Acinetobacter baumannii clinical strain 1): 4
Minimum inhibitory concentration ([9]; Acinetobacter baumannii clinical strain 2): 4
Minimum inhibitory concentration ([9]; Acinetobacter baumannii clinical strain 3): 4
Minimum inhibitory concentration ([9]; Acinetobacter baumannii clinical strain 4): 4
Minimum inhibitory concentration ([9]; Acinetobacter baumannii clinical strain 5): 4
Minimum inhibitory concentration ([10]; Streptococcus pneumoniae clinical strain 1): 8
Minimum inhibitory concentration ([10]; Streptococcus pneumoniae clinical strain 2): 4
Minimum inhibitory concentration ([10]; Streptococcus pneumoniae clinical strain 3): 2
Minimum inhibitory concentration ([10]; Streptococcus pneumoniae clinical strain 4): 4
Minimum inhibitory concentration ([10]; Streptococcus pneumoniae clinical strain 5): 4
Minimum inhibitory concentration ([11]; Staphylococcus aureus clinical strain 1): 1
Minimum inhibitory concentration ([11]; Staphylococcus aureus clinical strain 2): 1
Minimum inhibitory concentration ([11]; Staphylococcus aureus clinical strain 3): 1
Minimum inhibitory concentration ([11]; Staphylococcus aureus clinical strain 4): 1
Minimum inhibitory concentration ([11]; Staphylococcus aureus clinical strain 5): 1
Minimum inhibitory concentration ([12]; Serratia marcescens clinical strain 1): 64
Minimum inhibitory concentration ([12]; Serratia marcescens clinical strain 2): 64
Minimum inhibitory concentration ([12]; Serratia marcescens clinical strain 3): 64
Minimum inhibitory concentration ([12]; Serratia marcescens clinical strain 4): 64
Minimum inhibitory concentration ([12]; Serratia marcescens clinical strain 5): 128
Minimum inhibitory concentration ([13]; C. parapsilosis clinical yeast strain 1): 8
Minimum inhibitory concentration ([13]; C. parapsilosis clinical yeast strain 2): 8
Minimum inhibitory concentration ([13]; C. parapsilosis clinical yeast strain 3): 8
Minimum inhibitory concentration ([13]; C. parapsilosis clinical yeast strain 4): 8
